Measured values reported in patent publication US9828396B2, “Alkyne compounds for treatment of complement mediated disorders” (Achillion Pharmaceuticals, Inc., priority 2014, dated 2017).

biological target: Human factor D (Homo sapiens (Human), UniProt P00746); assay: Human Factor D Assay; assay type: biochemical; details: Human factor D 80 nM, substrate Z-L-Lys-SBzl, assay of Example 12
Description: Example 12. Human Factor D Assay
Human factor D (purified from human serum, Complement Technology, Inc.) at 80 nM final concentration is incubated with test compound at various concentrations for 5 minutes at room temperature in 50 mM Tris, 1M NaCl, pH 7.5. A synthetic substrate Z-L-Lys-SBzl and DTNB (Ellman's reagent) are added to final concentrations of 100 μM each. The increase in color is recorded at OD405 nm in a microplate in kinetic mode over 30 minutes with 30 second time points in a spectrofluorimeter. IC50 values are calculated by non-linear regression from the percentage of inhibition of complement factor D activity as a function of test compound concentration.

Human factor D, sequence (P00746 26-253): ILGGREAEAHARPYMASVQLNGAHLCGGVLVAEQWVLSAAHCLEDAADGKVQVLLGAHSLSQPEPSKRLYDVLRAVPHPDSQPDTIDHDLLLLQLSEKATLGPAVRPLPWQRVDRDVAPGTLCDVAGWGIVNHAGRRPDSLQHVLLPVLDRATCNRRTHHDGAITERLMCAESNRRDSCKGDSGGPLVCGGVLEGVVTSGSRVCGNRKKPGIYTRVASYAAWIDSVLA

**Q.** For NC(=O)c1nn(CC(=O)N2C[C@H](F)C[C@H]2C(=O)Nc2cccc(Br)n2)c2ccc(C#Cc3ncc(F)cn3)cc12 [Compound 46, 1-(2-((2S,4R)-2-(6-bromopyridin-2-ylcarbamoyl)-4-fluoropyrrolidin-1-yl)-2-oxoethyl)-5-((5-fluoropyrimidin-2-yl)ethynyl)-1H-indazole-3-carboxamide], which IC50 is on record?
**A.** < 1000 nM

**Q.** For NC(=O)c1nn(CC(=O)N2C[C@H](F)C[C@H]2C(=O)Nc2cccc(-c3ccccc3Cl)n2)c2ccc(C#Cc3ncccn3)cc12 [Compound 47, 1-(2-((2S,4R)-2-(6-(2-chlorophenyl)pyridin-2-ylcarbamoyl)-4-fluoropyrrolidin-1-yl)-2-oxoethyl)-5-(pyrimidin-2-ylethynyl)-1H-indazole-3-carboxamide], which IC50 is on record?
**A.** < 1000 nM

**Q.** Which IC50 does the source give for NC(=O)c1nn(CC(=O)N2C[C@H](F)C[C@H]2C(=O)Nc2cccc(Br)n2)c2ccc(C#Cc3ccccn3)cc12 [Compound 48, 1-(2-((2S,4R)-2-(6-bromopyridin-2-ylcarbamoyl)-4-fluoropyrrolidin-1-yl)-2-oxoethyl)-5-(pyridin-2-ylethynyl)-1H-indazole-3-carboxamide] here?
**A.** < 1000 nM

**Q.** NC(=O)c1nn(CC(=O)N2C[C@H](F)C[C@H]2C(=O)Nc2cccc(-c3ccc(F)cc3Cl)c2F)c2ccc(C#Cc3ncccn3)cc12 [Compound 49, 1-(2-((2S,4R)-2-(2′-chloro-2,4′-difluorobiphenyl-3-ylcarbamoyl)-4-fluoropyrrolidin-1-yl)-2-oxoethyl)-5-(pyrimidin-2-ylethynyl)-1H-indazole-3-carboxamide] was tested. Which IC50 did it give?
**A.** < 1000 nM

**Q.** Which IC50 does the source give for NC(=O)c1nn(CC(=O)N2C[C@H](F)C[C@H]2C(=O)Nc2cccc(-c3cn[nH]c3)n2)c2ccc(C#Cc3ncccn3)cc12 [Compound 50, 1-(2-((2S,4R)-2-(6-(1H-pyrazol-4-yl)pyridin-2-ylcarbamoyl)-4-fluoropyrrolidin-1-yl)-2-oxoethyl)-5-(pyrimidin-2-ylethynyl)-1H-indazole-3-carboxamide] here?
**A.** < 1000 nM

**Q.** NC(=O)c1nn(CC(=O)N2[C@@H]3CC(F)(F)[C@@H]3C[C@H]2C(=O)NCc2cccc(Cl)c2F)c2ccc(C#Cc3ncccn3)cc12 [Compound 51, 1-(2-((1R,3S,5R)-3-(3-chloro-2-fluorobenzylcarbamoyl)-6,6-difluoro-2-azabicyclo[3.2.0]heptan-2-yl)-2-oxoethyl)-5-(pyrimidin-2-ylethynyl)-1H-indazole-3-carboxamide] was tested. Which IC50 did it give?
**A.** 1000 to 10000 nM

**Q.** NC(=O)c1nn(CC(=O)N2CC[C@@H](O)[C@H]2C(=O)NCc2cccc(Cl)c2F)c2ccc(C#Cc3ncccn3)cc12 [Compound 52, 1-(2-((2S,3R)-2-(3-chloro-2-fluorobenzylcarbamoyl)-3-hydroxypyrrolidin-1-yl)-2-oxoethyl)-5-(pyrimidin-2-ylethynyl)-1H-indazole-3-carboxamide] was tested. Which IC50 did it give?
**A.** < 1000 nM

**Q.** How did the IC50 turn out when NC(=O)c1nn(CC(=O)N2[C@@H]3C[C@@H]3C[C@H]2C(=O)Nc2cccc(-c3ccccc3Cl)c2F)c2ccc(C#Cc3ncc(F)cn3)cc12 [Compound 53, 1-(2-((1R,3S,5R)-3-(2′-chloro-2-fluorobiphenyl-3-ylcarbamoyl)-2-azabicyclo[3.1.0]hexan-2-yl)-2-oxoethyl)-5-((5-fluoropyrimidin-2-yl)ethynyl)-1H-indazole-3-carboxamide] was run?
**A.** < 1000 nM

**Q.** With NC(=O)c1nn(CC(=O)N2[C@@H]3C[C@@H]3C[C@H]2C(=O)Nc2cccc(C3CC3)n2)c2ccc(C#Cc3ncccn3)cc12 [Compound 54, 1-(2-((1R,3S,5R)-3-(6-cyclopropylpyridin-2-ylcarbamoyl)-2-azabicyclo[3.1.0]hexan-2-yl)-2-oxoethyl)-5-(pyrimidin-2-ylethynyl)-1H-indazole-3-carboxamide] as the compound, how does the IC50 read?
**A.** < 1000 nM

**Q.** How did the IC50 turn out when NC(=O)c1nn(CC(=O)N2C[C@H](F)C[C@H]2C(=O)Nc2cccc(-c3ccccc3Cl)c2F)c2ccc(C#Cc3ncc(F)cn3)cc12 [Compound 55, 1-(2-((2S,4R)-2-(2′-chloro-2-fluorobiphenyl-3-ylcarbamoyl)-4-fluoropyrrolidin-1-yl)-2-oxoethyl)-5-((5-fluoropyrimidin-2-yl)ethynyl)-1H-indazole-3-carboxamide] was run?
**A.** < 1000 nM

**Q.** With NC(=O)c1nn(CC(=O)N2[C@@H]3C[C@@H]3C[C@H]2C(=O)Nc2cccc(Cl)n2)c2ccc(C#Cc3ncccn3)cc12 [Compound 56, 1-(2-((1R,3S,5R)-3-(6-chloropyridin-2-ylcarbamoyl)-2-azabicyclo[3.1.0]hexan-2-yl)-2-oxoethyl)-5-(pyrimidin-2-ylethynyl)-1H-indazole-3-carboxamide] as the compound, how does the IC50 read?
**A.** < 1000 nM

**Q.** With N#Cc1cccc(NC(=O)[C@@H]2C[C@H]3C[C@H]3N2C(=O)Cn2nc(C(N)=O)c3cc(C#Cc4ncccn4)ccc32)n1 [Compound 57, 1-(2-((1R,3S,5R)-3-(6-cyanopyridin-2-ylcarbamoyl)-2-azabicyclo[3.1.0]hexan-2-yl)-2-oxoethyl)-5-(pyrimidin-2-ylethynyl)-1H-indazole-3-carboxamide] as the compound, how does the IC50 read?
**A.** < 1000 nM

**Q.** How did the IC50 turn out when NC(=O)c1nn(CC(=O)N2[C@@H]3C[C@@H]3C[C@H]2C(=O)Nc2cccc(Br)n2)c2ccc(C#Cc3ccc(F)cn3)cc12 [Compound 58, 1-(2-((1R,3S,5R)-3-(6-bromopyridin-2-ylcarbamoyl)-2-azabicyclo[3.1.0]hexan-2-yl)-2-oxoethyl)-5-((5-fluoropyridin-2-yl)ethynyl)-1H-indazole-3-carboxamide] was run?
**A.** < 1000 nM

**Q.** Which IC50 does the source give for NC(=O)c1nn(CC(=O)N2[C@@H]3C[C@@H]3C[C@H]2C(=O)Nc2cccc(Br)n2)c2ccc(C#Cc3ccc(C(F)(F)F)cn3)cc12 [Compound 59, 1-(2-((1R,3S,5R)-3-(6-bromopyridin-2-ylcarbamoyl)-2-azabicyclo[3.1.0]hexan-2-yl)-2-oxoethyl)-5-((5-(trifluoromethyl)pyridin-2-yl)ethynyl)-1H-indazole-3-] here?
**A.** < 1000 nM

**Q.** Which IC50 does the source give for N#Cc1ccc(C#Cc2ccc3c(c2)c(C(N)=O)nn3CC(=O)N2[C@@H]3C[C@@H]3C[C@H]2C(=O)Nc2cccc(Br)n2)nc1 [Compound 60, 1-(2-((1R,3S,5R)-3-(6-bromopyridin-2-ylcarbamoyl)-2-azabicyclo[3.1.0]hexan-2-yl)-2-oxoethyl)-5-((5-cyanopyridin-2-yl)ethynyl)-1H-indazole-3-carboxamide] here?
**A.** < 1000 nM

**Q.** How did the IC50 turn out when NC(=O)c1nn(CC(=O)N2[C@@H]3C[C@@H]3C[C@H]2C(=O)Nc2cccc(Br)n2)c2ccc(C#Cc3ncc(C(F)(F)F)cn3)cc12 [Compound 61, 1-(2-((1R,3S,5R)-3-(6-bromopyridin-2-ylcarbamoyl)-2-azabicyclo[3.1.0]hexan-2-yl)-2-oxoethyl)-5-((5-(trifluoromethyl)pyrimidin-2-yl)ethynyl)-1H-indazole-3-carboxamide] was run?
**A.** < 1000 nM

**Q.** How did the IC50 turn out when NC(=O)c1nn(CC(=O)N2[C@@H]3C[C@@H]3C[C@H]2C(=O)Nc2cccc(F)n2)c2ccc(C#Cc3ncccn3)cc12 [Compound 62, 1-(2-((1R,3S,5R)-3-(6-fluoropyridin-2-ylcarbamoyl)-2-azabicyclo[3.1.0]hexan-2-yl)-2-oxoethyl)-5-(pyrimidin-2-ylethynyl)-1H-indazole-3-carboxamide] was run?
**A.** < 1000 nM

**Q.** NC(=O)c1nn(CC(=O)N2C[C@H](F)C[C@H]2C(=O)Nc2cccc(-c3cc(F)c(F)cc3Cl)c2F)c2ccc(C#Cc3ncc(F)cn3)cc12 [Compound 63, 1-(2-((2S,4R)-2-(2′-chloro-2,4′,5′-trifluorobiphenyl-3-ylcarbamoyl)-4-fluoropyrrolidin-1-yl)-2-oxoethyl)-5-((5-fluoropyrimidin-2-yl)ethynyl)-1H-indazole-3-carboxamide] was tested. Which IC50 did it give?
**A.** < 1000 nM

**Q.** With NC(=O)c1nn(CC(=O)N2[C@@H]3C[C@@H]3C[C@H]2C(=O)Nc2cccc(-c3ccc(F)cc3Cl)c2F)c2ccc(C#Cc3ncc(F)cn3)cc12 [Compound 64, 1-(2-((1R,3S,5R)-3-(2′-chloro-2,4′-difluorobiphenyl-3-ylcarbamoyl)-2-azabicyclo[3.1.0]hexan-2-yl)-2-oxoethyl)-5-((5-fluoropyrimidin-2-yl)ethynyl)-1H-indazole-3-carboxamide] as the compound, how does the IC50 read?
**A.** < 1000 nM

**Q.** NC(=O)c1nn(CC(=O)N2[C@@H]3C[C@@H]3C[C@H]2C(=O)Nc2cccc(Br)n2)c2ccc(C#Cc3cc(F)ccn3)cc12 [Compound 65, 1-(2-((1R,3S,5R)-3-(6-bromopyridin-2-ylcarbamoyl)-2-azabicyclo[3.1.0]hexan-2-yl)-2-oxoethyl)-5-((4-fluoropyridin-2-yl)ethynyl)-1H-indazole-3-carboxamide] was tested. Which IC50 did it give?
**A.** < 1000 nM

**Q.** For NC(=O)c1nn(CC(=O)N2CCS[C@H]2C(=O)Nc2cccc(-c3ccccc3Cl)c2F)c2ccc(C#Cc3ncccn3)cc12 [Compound 66, (S)-3-(2-(3-carbamoyl-5-(pyrimidin-2-ylethynyl)-1H-indazol-1-yl)acetyl)-N-(2′-chloro-2-fluorobiphenyl-3-yl)thiazolidine-2-carboxamide], which IC50 is on record?
**A.** < 1000 nM

**Q.** For NC(=O)c1nn(CC(=O)N2C[C@H](F)C[C@H]2C(=O)NCc2cccc(Cl)c2F)c2cnc(C#Cc3ccccc3)cc12 [Compound 67, 1-(2-((2S,4R)-2-(3-chloro-2-fluorobenzylcarbamoyl)-4-fluoropyrrolidin-1-yl)-2-oxoethyl)-5-(phenylethynyl)-1H-pyrazolo[3,4-c]pyridine-3-carboxamide], which IC50 is on record?
**A.** < 1000 nM

**Q.** With NC(=O)c1nn(CC(=O)N2C[C@H](F)C[C@H]2C(=O)Nc2cncc(Br)c2)c2ccc(C#Cc3ncc(F)cn3)cc12 [Compound 68, 1-(2-((2S,4R)-2-(5-bromopyridin-3-ylcarbamoyl)-4-fluoropyrrolidin-1-yl)-2-oxoethyl)-5-((5-fluoropyrimidin-2-yl)ethynyl)-1H-indazole-3-carboxamide] as the compound, how does the IC50 read?
**A.** < 1000 nM

**Q.** Which IC50 does the source give for NC(=O)c1nn(CC(=O)N2C[C@H](F)C[C@H]2C(=O)Nc2cccc(-c3cncnc3)c2F)c2ccc(C#Cc3ncccn3)cc12 [Compound 69, 1-(2-((2S,4R)-4-fluoro-2-(2-fluoro-3-(pyrimidin-5-yl)phenylcarbamoyl)pyrrolidin-1-yl)-2-oxoethyl)-5-(pyrimidin-2-ylethynyl)-1H-indazole-3-carboxamide] here?
**A.** < 1000 nM
